Laboratory results taken from ChEMBL document CHEMBL3507680, “University of Dundee, Gates Library screen for HepG2 cell viability”.

Test: Human HepG2 cell viability assay in 384 well format
Format: toxicity, cell-based
Set-up: dose 125 nL, time 70.5 hour; cytotoxicity at 70.5 h: concentration not given beside the values
Details: HepG2 cells, read-out: Inhibition

SMILES | cytotoxicity at 70.5 h
COc1ccc(F)c(F)c1CN1CCC2(CC1)[C@H](O)C[C@@H]2OCCN | -7.39%
CCCC1COCCN1Cc1ccc(S(=O)(=O)NC)cc1 (configuration not stated) | 7.3%
CCN(CC)CCCN1CCN(c2nc(C)cnc2C)CC1 | -7.19%
CCc1ccc(CN(C)c2cc(COC)nc3ccnn23)cc1 | -2.38%
CC(C)c1cccc(N2CCCC3(CCC(=O)N(C4CC4)C3)C2)n1 (configuration not stated) | -1.84%
O=C1CC2(CCN(Cc3ccc(Cl)s3)C2)C(=O)N1 (configuration not stated) | -9.8%
COCc1ncc(CN(CCN(C)C)Cc2ccc(C)s2)cn1 | -4.43%
CCCn1ncnc1C(C)NC(=O)CC1CCN(C(C)C)CC1 (configuration not stated) | -4.86%
Cc1ccc(N2CCC(N3C[C@@H](CN(C)C)[C@@H](CO)C3)CC2)cc1 | -6.07%
O=C(CC1CCc2ccccc21)N1CCC(O)(c2cccnc2)CC1 (configuration not stated) | -9.82%
O=C1O[C@@H]2CN(CCc3ccccc3)C[C@@H]2N1CCCN1CCOCC1 | -3.23%
O=C(COCC(F)(F)C(F)F)N1CCC2(CCCN(CC3CC3)C2=O)C1 (configuration not stated) | -8.88%
O=C(O)C(c1ccc2c(c1)OCO2)N1CCCC1 (configuration not stated) | -0.492%
Cc1nc[nH]c1C(=O)N1CCCC2(CN(C)C(=O)O2)C1 (configuration not stated) | -0.146%
COCCCC1(CO)CCCN(C(=O)c2cnc(C3CC3)nc2)C1 (configuration not stated) | -4.81%
COc1ccc(F)c(-c2cc(O)nc(N)n2)c1 | -9.12%
CCCN(Cc1cccnc1)Cc1ccc(C2CCCCO2)o1 (configuration not stated) | -2.3%
COCCN1CC(c2nc(CC3CCN(C)CC3)no2)CCC1=O (configuration not stated) | -11.5%
Cc1[nH]c2ccc(CNC(=O)c3ccc(CN4CCCC4)o3)cc2c1C | -7.28%

SMILES | cytotoxicity at 70.5 h
O=C(O)[C@@H]1CN(C(=O)c2ccc(O)cc2)C[C@H]1c1cccc(F)c1 | 14.4%
CCn1ccc2ccc(CN3CCCC3c3nc(C(C)C)no3)cc21 (configuration not stated) | -10.7%
CS(=O)(=O)CCN1CCC2(CCCN(C3CCOCC3)C2=O)C1 (configuration not stated) | -5.34%
CC(C)CCN1CC2(CCCN(C(=O)c3cscn3)C2)CCC1=O (configuration not stated) | -8.72%
Cc1noc(C)c1CCC(=O)N1CCN(CCn2cncn2)CC1 | -1.34%
COc1ccc([C@@H]2CN(C(=O)CCC(F)(F)F)C[C@H]2NC(C)=O)cc1 | -5.27%
COc1nccc(N2CCN(Cc3ccc(C)cc3)C(=O)C2)c1C#N | 1.75%
COCCN1CCC(CN(CC2CCCO2)C(=O)COC)CC1 (configuration not stated) | 13.8%
O=S1(=O)COCCN1Cc1ccc(Cl)c(F)c1 | -6.23%
O=C(c1c[nH]c(=O)c(Cl)c1)N1C[C@@H]2CC[C@H](C1)N(Cc1ccccc1)C2 | -1.59%
Cc1cc(C[C@@H]2COC[C@@H]2NC(=O)Cn2c(=O)oc3ccccc32)on1 | 1.37%
CCN(CC)S(=O)(=O)N1CCCC(c2ccc(C(=O)O)cc2)C1 (configuration not stated) | -4.81%
CN(C)S(=O)(=O)N1CCC2(CCCN(Cc3ccc(F)cc3)C2=O)C1 (configuration not stated) | -2.15%
CN(C)CCCn1ccnc1C1CCCN(c2cc(N)ncn2)C1 (configuration not stated) | -4.4%
CCn1nc(CC(C)C)cc1C(=O)NCCCOC | -0.898%
CN(C)C(=O)N1C[C@@H]2CC[C@H](C1)N(Cc1ccc3nsnc3c1)C2 | -5.73%
COc1cc(N2CCCC(c3nccn3CCN(C)C)C2)nc(N)n1 (configuration not stated) | -8.19%
Cc1ncsc1CCC(=O)NCc1cc2n(n1)CCN(C(=O)N(C)C)C2 | 13.9%
O=C1N(CCCc2ccccc2)CCCC1(O)CNCc1ccccc1 (configuration not stated) | -10.4%

SMILES | cytotoxicity at 70.5 h
CCn1ccnc1-c1nc2cc(S(=O)(=O)N3CCCC3)ccc2n1C | -3.32%
CN(C)C(=O)CN1C[C@@H]2CC[C@H](C1)N(C(=O)CCn1cncn1)C2 | -12.6%
COc1cccc(C)c1C(=O)N1C[C@@H](CN(C)C)[C@@H](CO)C1 | -4.7%
CCn1nc(C)c(CNC(=O)c2cn(CCC3CCCCN3)nn2)c1C (configuration not stated) | -7.47%
Cc1nc(CCCNC(=O)C2CC(=O)N(C3CC3)C2)sc1C (configuration not stated) | 3.65%
O=C(NCCc1ccncc1)C1CCN(Cc2ccco2)CC1 | 10.1%
COc1cccn(CC(=O)N(C)CCOc2cc(C)cc(C)c2)c1=O | 2.11%
CSc1ccccc1CN1CCCn2nc(CNC(=O)N(C)C)cc2C1 | -1.85%
CCC1(CO)CCCN(c2ncccc2C#N)C1 (configuration not stated) | 15.7%
O=C1CCC2(CCN(Cc3cc(F)cc(F)c3)CC2)CN1CCO | -1.2%
COCc1noc(-c2ccc(N3CCCCC3CO)nc2)n1 (configuration not stated) | -6.84%
COc1cnc(N2CCC(Oc3ccccc3OC)(C(=O)O)CC2)nc1 | -3.07%
Nc1nccc(NCc2cc3n(n2)CCCN(C(=O)C2CCC2)C3)n1 | -6.62%
CSc1ncccc1C(=O)N1CCC(c2nc3c(C)cccc3[nH]2)CC1 | 12.8%
COc1cccc(OCC2CCCN(C(=O)c3cnc(C)nc3O)C2)c1 (configuration not stated) | -9.18%
CC(C)N(C)C(=O)CN1CCCC(c2ccc(C(=O)O)cc2)C1 (configuration not stated) | 32.3%
CC(CN1CCOCC1)NCc1nncn1C1CCCCC1 (configuration not stated) | -3.01%
CN(Cc1noc(C2CC2)n1)C1CCN(Cc2ccccc2C#N)C1 (configuration not stated) | 17.8%
Cc1ncc(CN2CCC(N(C)Cc3noc(C4CC4)n3)C2)s1 (configuration not stated) | 19%
